Format in all cases: cell-based
What all share (conditions): ratio of EC50 to that of NECA, CHO cells transfected with human receptor, SPAP readout

In test [1] the target is human adenosine 2a receptor (Homo sapiens, UniProt P29274). In words: Agonist activity at adenosine 2a receptor, CHO cells with CRE-SPAP reporter (basal cAMP). The protocol:
(§1) (1) Agonist activity against adenosine 2a, adenosine 1 and adenosine 3 receptor subtypes.
(§2) Agonist selectivity of compounds against other human adenosine receptors was determined using Chinese hamster ovary (CHO) cells transfected with the gene for the relevant human adenosine receptor following a method based on that of Castanon and Spevak, 1994. The CHO cells were also transfected with cyclic AMP response elements promoting the gene for secreted placental alkaline phosphatase (SPAP) (Wood, 1995). The effect of test compounds was determined by their effects on basal levels of cAMP (A2a) or on forskolin-enhanced cAMP (A1 and A3) as reflected by changes in levels of SPAP. EC50 values for compounds were then determined as a ratio to that of the non-selective agonist N-ethyl carboxamide adenosine (NECA).

For test [2], the target named is T1, human adenosine 3 receptor (Homo sapiens, UniProt P0DMS8).
T1 sequence (P0DMS8 1-318): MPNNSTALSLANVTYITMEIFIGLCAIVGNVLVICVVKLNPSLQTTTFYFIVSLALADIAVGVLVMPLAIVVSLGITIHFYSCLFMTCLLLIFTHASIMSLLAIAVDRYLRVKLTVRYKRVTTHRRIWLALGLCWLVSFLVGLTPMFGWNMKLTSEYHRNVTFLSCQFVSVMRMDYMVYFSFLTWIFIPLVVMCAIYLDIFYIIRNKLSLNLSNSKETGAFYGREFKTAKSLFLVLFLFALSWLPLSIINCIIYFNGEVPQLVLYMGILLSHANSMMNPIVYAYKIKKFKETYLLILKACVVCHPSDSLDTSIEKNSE
In words: Agonist activity at adenosine 3 receptor, CHO cells with CRE-SPAP reporter (forskolin-enhanced cAMP). The protocol: as §1, §2

The target in test [3] is T2, human adenosine 1 receptor (Homo sapiens, UniProt P30542).
T2 sequence (P30542 1-326): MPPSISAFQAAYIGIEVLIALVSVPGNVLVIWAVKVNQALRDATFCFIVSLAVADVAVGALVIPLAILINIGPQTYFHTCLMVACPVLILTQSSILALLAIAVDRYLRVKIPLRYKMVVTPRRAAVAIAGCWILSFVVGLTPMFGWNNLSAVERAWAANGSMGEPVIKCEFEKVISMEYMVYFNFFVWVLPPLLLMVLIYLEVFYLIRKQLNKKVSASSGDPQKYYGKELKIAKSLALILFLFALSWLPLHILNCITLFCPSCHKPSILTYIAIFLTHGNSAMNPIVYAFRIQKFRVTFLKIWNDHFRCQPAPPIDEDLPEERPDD
Kind of test: Agonist activity at adenosine 1 receptor, CHO cells with CRE-SPAP reporter (forskolin-enhanced cAMP). On the procedure: as §1, §2

Bounds are passed on as bounds.

From patent publication US6534486B1, “2-(purin-9-yl)-Tetrahydrofuran-3,4-diol derivatives” (SmithKline Beecham Corporation, priority 1998, dated 2003) come the findings set out here.

human adenosine 2a receptor, sequence (P29274 whole entry): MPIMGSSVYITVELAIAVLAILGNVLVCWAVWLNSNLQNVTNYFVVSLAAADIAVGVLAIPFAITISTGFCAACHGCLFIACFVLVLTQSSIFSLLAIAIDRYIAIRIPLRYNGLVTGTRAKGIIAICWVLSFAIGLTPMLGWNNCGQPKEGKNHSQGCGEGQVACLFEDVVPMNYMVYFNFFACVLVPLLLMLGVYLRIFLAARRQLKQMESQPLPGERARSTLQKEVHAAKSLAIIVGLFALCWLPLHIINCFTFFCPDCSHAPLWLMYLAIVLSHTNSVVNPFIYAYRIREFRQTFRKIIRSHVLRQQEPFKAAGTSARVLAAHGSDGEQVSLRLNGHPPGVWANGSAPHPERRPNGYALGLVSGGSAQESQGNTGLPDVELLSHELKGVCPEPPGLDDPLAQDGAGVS

Take `Cn1cnc(CCNc2nc(NCC(c3ccccc3)c3ccccc3)c3ncn([C@@H]4O[C@H](CN5C(=O)CNC5=O)[C@@H](O)[C@H]4O)c3n2)c1.O=CO.O=CO` [Example 5, 3-(5R-{6-(2,2-Diphenyl-ethylamino)-2-[2-(1-methyl-1-H-imidazol-4-yl)-ethylamino]-purin-9-yl}3S,4R-dihydroxy-tetrahydro-furan-2R-ylmethyl)-imidazolidine-2,4-dione diformate]: in test [1], the “A2a, EC50 values as a ratio of that of NECA” value is recorded as 13.46. Besides, in test [2], the “A3, EC50 values as a ratio of that of NECA” value is more than 270. In test [3], the “A1, EC50 values as a ratio of that of NECA” value amounted to 8479.
In the same order, the values of `OC1CCCC1Nc1nc(NCC(c2ccccc2)c2ccccc2)c2ncn(C3OC(Cn4cncn4)C(O)C3O)c2n1` [Example 6, (2R,3R,4S,5R)-2-[6-(2,2-Diphenyl-ethylamino)-2-(2R-hydroxy-cyclopent-(R)-ylamino)-purin-9-yl]-5-[1,2,4]triazol-1-ylmethyl-tetrahydro-furan-3,4-diol format] are 23.7, more than 274 and “>=3397”.
`Cn1cnc(CCNc2nc(NCC(c3ccccc3)c3ccccc3)c3ncn(C4OC(Cn5nccn5)C(O)C4O)c3n2)c1` [Example 3, (2R,3R,4S,5R)-2-{6-(2,2-Diphenyl-ethylamino)-2-[2-(1-methyl-1-H-imidazol-4-yl)-ethylamino]-purin-9-yl}-5-[1,2,3]triazol-2-ylmethyl-tetrahydro-furan-3,4-diol diformate]: the “A2a, EC50 values as a ratio of that of NECA” value in test [1] was found to be 1.31. Also, the “A3, EC50 values as a ratio of that of NECA” value in test [2] is on record as more than 147. Further, the “A1, EC50 values as a ratio of that of NECA” value in test [3] was determined as 3038.8.
In the same order, the values of `N[C@H]1CC[C@H](Nc2nc(NCC(c3ccccc3)c3ccccc3)c3ncn([C@@H]4O[C@H](Cn5nccn5)[C@@H](O)[C@H]4O)c3n2)CC1.O=CO` [Example 1, (2R,3R,4S, 5R)-2-[2-(trans-4-Amino-cyclohexylamino)6-(2,2-diphenyl-ethylamino)-purin-9-yl]-5-[1,2,3]triazol-2-ylmethyl-tetrahydro-furan-3,4-diol formate] are 17.1, more than 656 and “>=3969”.
In the same order, the values of `O=CO.O[C@@H]1[C@H](O)[C@@H](Cn2nccn2)O[C@H]1n1cnc2c(NCC(c3ccccc3)c3ccccc3)nc(NCCN3CCOCC3)nc21` [Example 4, (2R,3R,4S,5R)-2-[6-(2,2-Diphenyl-ethylamino)-2-(2-morpholin-4-yl-ethylamino)-purin-9-yl]-5-[1,2,3]triazol-2-ylmethyl-tetrahydro-furan-3,4-diol formate] are 16.9, more than 174 and 1014.
In the same order, the values of `OC1C(Cn2cncn2)OC(n2cnc3c(NCC(c4ccccc4)c4ccccc4)nc(NC4CCNC4)nc32)C1O` [Example 2, (2R,3R,4S,5R)-2-[6-(2,2-Diphenyl-ethylamino)-2-(pyrrolidin-3R-ylamino)-purin-9-yl]-5-[1,2,4]triazol-1-ylmethyl-tetrahydro-furan-3,4-diol diformate] are 14.4, more than 152 and more than 8479.
